Active and inactive are the calls of the source.
How the values were obtained:
[1] = biological target: Acetylcholinesterase (Electrophorus electricus) (UniProt O42275); test: Inhibition of electric eel AChE at 20 uM using acetylthiocholine iodide as substrate preincubated with enzyme for 20 mins followed by substrate addition by Ellman's method relative to control
[2] = biological target: Cholinesterase (Equus caballus) (UniProt P81908); test: Inhibition of equine serum BuChE at 20 uM using butyrylthiocholine iodide as substrate preincubated with enzyme for 20 mins followed by substrate addition by Ellman's method relative to control
Cholinesterase (Equus caballus), sequence (P81908 whole entry): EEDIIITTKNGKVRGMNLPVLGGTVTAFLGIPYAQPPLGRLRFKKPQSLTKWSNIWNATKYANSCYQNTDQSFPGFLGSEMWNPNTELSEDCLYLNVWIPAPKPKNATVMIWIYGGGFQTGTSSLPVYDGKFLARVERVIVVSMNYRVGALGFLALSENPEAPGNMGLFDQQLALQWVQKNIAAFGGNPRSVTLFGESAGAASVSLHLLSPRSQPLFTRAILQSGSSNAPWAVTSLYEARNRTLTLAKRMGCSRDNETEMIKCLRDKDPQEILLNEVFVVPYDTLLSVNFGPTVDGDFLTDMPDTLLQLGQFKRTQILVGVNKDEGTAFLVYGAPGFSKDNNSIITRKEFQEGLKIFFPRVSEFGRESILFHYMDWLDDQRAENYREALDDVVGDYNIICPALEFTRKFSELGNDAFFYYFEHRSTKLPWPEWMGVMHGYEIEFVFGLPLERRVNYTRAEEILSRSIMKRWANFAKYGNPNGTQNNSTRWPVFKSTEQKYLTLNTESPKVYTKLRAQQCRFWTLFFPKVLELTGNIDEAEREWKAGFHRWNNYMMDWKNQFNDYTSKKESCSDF

Cholinesterase = Cholinesterase (Equus caballus, UniProt P81908); test: Inhibition of equine serum BuChE using butyrylthiocholine iodide as substrate preincubated with enzyme for 20 mins followed by substrate addition by Ellman's method
Cholinesterase, sequence (P81908 whole entry): as above

[3] = Octanol-PBS buffer partition coefficient, log P of the compound incubated for 24 hrs measured at pH 7.4 by shake-flask method; type: physicochemical

Acetylcholinesterase (Electrophorus electricus), sequence (O42275 24-633 limits assumed): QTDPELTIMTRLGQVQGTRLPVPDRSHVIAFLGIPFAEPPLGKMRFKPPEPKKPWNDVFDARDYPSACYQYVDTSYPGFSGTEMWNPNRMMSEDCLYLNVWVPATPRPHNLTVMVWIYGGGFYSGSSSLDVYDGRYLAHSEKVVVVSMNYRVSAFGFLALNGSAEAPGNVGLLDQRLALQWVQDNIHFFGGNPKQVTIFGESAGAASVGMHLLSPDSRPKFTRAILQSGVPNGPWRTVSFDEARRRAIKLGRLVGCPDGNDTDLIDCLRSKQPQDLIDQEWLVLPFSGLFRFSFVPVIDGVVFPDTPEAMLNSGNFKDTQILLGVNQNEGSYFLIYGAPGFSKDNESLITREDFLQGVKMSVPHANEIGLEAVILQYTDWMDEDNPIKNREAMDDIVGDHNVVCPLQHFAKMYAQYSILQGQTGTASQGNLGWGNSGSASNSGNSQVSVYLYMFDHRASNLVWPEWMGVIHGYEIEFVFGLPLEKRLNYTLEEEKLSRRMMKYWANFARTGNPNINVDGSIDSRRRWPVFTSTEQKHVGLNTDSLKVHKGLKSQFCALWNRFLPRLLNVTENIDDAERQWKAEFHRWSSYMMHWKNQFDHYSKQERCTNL

Cc1nn(-c2cccc(F)c2)c2c1C(c1cccc(F)c1)CS(=O)(=O)O2 (centres undefined)
inhibition [1]: inactive
inhibition [2]: inactive

Cc1nn(-c2ccccc2)c2c1C(c1cccc(C(F)(F)F)c1)CS(=O)(=O)O2 (centres undefined)
IC50 (Cholinesterase): 16.4 µM
inhibition [1]: inactive

COc1ccc(-n2nc(C)c3c2OS(=O)(=O)CC3c2ccc(F)cc2)cc1 (centres undefined)
inhibition [1]: inactive
inhibition [2]: 15%

Cc1cccc(/C=C/C2CS(=O)(=O)Oc3c2c(C)nn3-c2ccccc2)c1 (centres undefined)
IC50 (Cholinesterase): 10.1 µM
inhibition [1]: 13%

COc1cccc(C2CS(=O)(=O)Oc3c2c(C2CC2)nn3-c2cccc(F)c2)c1 (centres undefined)
IC50 (Cholinesterase): 14.3 µM
inhibition [1]: inactive

Cc1cc(C2CS(=O)(=O)Oc3c2c(C2CC2)nn3-c2ccccc2F)ccc1Br (centres undefined)
IC50 (Cholinesterase): 5.71 µM
inhibition [1]: inactive
logD at 24 h [3]: 2.72

Cc1cccc(C2CS(=O)(=O)Oc3c2c(C)nn3-c2ccccc2)c1 (centres undefined)
IC50 (Cholinesterase): 17.7 µM
inhibition [1]: inactive

Cc1nn(-c2ccccc2)c2c1C(c1ccsc1)CS(=O)(=O)O2 (centres undefined)
IC50 (Cholinesterase): 10.1 µM
inhibition [1]: inactive

N#Cc1ccc(C2CS(=O)(=O)Oc3c2c(C2CC2)nn3-c2cccc(Cl)c2)cc1 (centres undefined)
inhibition [1]: inactive
inhibition [2]: inactive

Cc1cccc(-n2nc(C)c3c2OS(=O)(=O)CC3c2ccccc2)c1 (centres undefined)
inhibition [1]: inactive
inhibition [2]: inactive

COc1ccc(-c2nn(-c3ccccc3F)c3c2C(c2ccc(Br)c(C)c2)CS(=O)(=O)O3)cc1 (centres undefined)
IC50 (Cholinesterase): 4.33 µM
inhibition [1]: inactive
logD at 24 h [3]: 2.91

COc1ccc(-c2nn(-c3ccccc3Cl)c3c2C(c2ccc(F)cc2)CS(=O)(=O)O3)cc1 (centres undefined)
inhibition [1]: inactive
inhibition [2]: inactive

Cc1ccc(-n2nc(C)c3c2OS(=O)(=O)CC3c2ccccc2)cc1 (centres undefined)
inhibition [1]: inactive
inhibition [2]: inactive

Cc1ccc(C2CS(=O)(=O)Oc3c2c(C)nn3-c2ccccc2)cc1 (centres undefined)
inhibition [1]: inactive
inhibition [2]: inactive

O=C1CCC2=C1C(c1ccc([N+](=O)[O-])cc1)CS(=O)(=O)O2 (centres undefined)
inhibition [1]: inactive
inhibition [2]: inactive

COc1ccc(-c2nn(-c3ccc(Cl)cc3)c3c2C(c2ccc(Br)c(C)c2)CS(=O)(=O)O3)cc1 (centres undefined)
IC50 (Cholinesterase): 13.3 µM
inhibition [1]: inactive

COc1ccc(-c2nn(-c3ccccc3Cl)c3c2C(c2ccc(Br)c(C)c2)CS(=O)(=O)O3)cc1 (centres undefined)
inhibition [1]: inactive
inhibition [2]: 35%

CC(=O)c1cccc(C2CS(=O)(=O)Oc3c2c(C)nn3-c2ccccc2)c1 (centres undefined)
inhibition [1]: inactive
inhibition [2]: 24%

Cc1nn(-c2cccc(Cl)c2)c2c1C(c1cccc(F)c1)CS(=O)(=O)O2 (centres undefined)
inhibition [1]: inactive
inhibition [2]: inactive

Cc1nn(-c2ccccc2)c2c1C(c1ccc([N+](=O)[O-])cc1)CS(=O)(=O)O2 (centres undefined)
inhibition [1]: inactive
inhibition [2]: inactive

CCOC(=O)c1ccc(C2CS(=O)(=O)Oc3c2c(C)nn3-c2ccccc2)cc1 (centres undefined)
inhibition [1]: inactive
inhibition [2]: inactive

COc1ccc(-n2nc(C)c3c2OS(=O)(=O)CC3c2ccc(Br)c(C)c2)cc1 (centres undefined)
inhibition [1]: inactive
inhibition [2]: inactive

Cc1nn(-c2ccccc2)c2c1C(c1cccs1)CS(=O)(=O)O2 (centres undefined)
inhibition [1]: inactive
inhibition [2]: 42%

Cc1nn(-c2ccccc2)c2c1C(c1cnn(-c3ccccc3)c1)CS(=O)(=O)O2 (centres undefined)
inhibition [1]: inactive
inhibition [2]: 14%

COc1ccccc1C1CS(=O)(=O)Oc2c1c(C)nn2-c1ccccc1 (centres undefined)
inhibition [1]: inactive
inhibition [2]: 31%

Cc1cc(C2CS(=O)(=O)Oc3c2c(C)nn3-c2ccccc2F)ccc1Br (centres undefined)
IC50 (Cholinesterase): 3.83 µM
inhibition [1]: inactive
logD at 24 h [3]: 2.26

Cc1nn(-c2ccccc2F)c2c1C(c1ccc(F)cc1)CS(=O)(=O)O2 (centres undefined)
IC50 (Cholinesterase): 6.1 µM
inhibition [1]: inactive
logD at 24 h [3]: 2.13

Cc1nn(-c2ccccc2)c2c1C(/C=C/c1ccc(C(C)(C)C)cc1)CS(=O)(=O)O2 (centres undefined)
inhibition [1]: 11%
inhibition [2]: inactive

COc1ccc(-c2nn(-c3ccc(Cl)cc3)c3c2C(c2ccc(F)cc2)CS(=O)(=O)O3)cc1 (centres undefined)
inhibition [1]: inactive
inhibition [2]: 7%

Cc1cc(C2CS(=O)(=O)Oc3c2c(C)nn3-c2cccc(Cl)c2)ccc1Br (centres undefined)
inhibition [1]: inactive
inhibition [2]: inactive

Cc1ccc(C2CS(=O)(=O)Oc3c2c(C)nn3-c2ccccc2)cc1Br (centres undefined)
IC50 (Cholinesterase): 18.3 µM
inhibition [1]: inactive

N#Cc1ccc(C2CS(=O)(=O)Oc3c2c(C2CC2)nn3-c2ccccc2Cl)cc1 (centres undefined)
inhibition [1]: inactive
inhibition [2]: 7%

COc1cccc(C2CS(=O)(=O)Oc3c2c(C)nn3-c2ccccc2)c1 (centres undefined)
IC50 (Cholinesterase): 11 µM
inhibition [1]: inactive

COc1cccc(C2CS(=O)(=O)Oc3c2c(C)nn3-c2cccc(Cl)c2)c1 (centres undefined)
inhibition [1]: inactive
inhibition [2]: inactive

Cc1nn(-c2ccccc2)c2c1C(/C=C/c1ccc(Br)cc1)CS(=O)(=O)O2 (centres undefined)
inhibition [1]: inactive
inhibition [2]: inactive

Cc1nn(-c2ccc(Cl)cc2)c2c1C(c1ccc(F)cc1)CS(=O)(=O)O2 (centres undefined)
inhibition [1]: inactive
inhibition [2]: inactive

Cc1nn(-c2ccccc2)c2c1C(c1ccc3ccccc3c1)CS(=O)(=O)O2 (centres undefined)
inhibition [1]: inactive
inhibition [2]: inactive

Cc1cc(C)cc(C2CS(=O)(=O)Oc3c2c(C)nn3-c2ccccc2)c1 (centres undefined)
inhibition [1]: inactive
inhibition [2]: inactive

Cc1nn(-c2ccccc2)c2c1C(c1cc3ccccc3s1)CS(=O)(=O)O2 (centres undefined)
inhibition [1]: 14%
inhibition [2]: 33%

COc1ccc(-c2nn(-c3ccc(Cl)cc3)c3c2C(c2ccc(C#N)cc2)CS(=O)(=O)O3)cc1 (centres undefined)
IC50 (Cholinesterase): 21 µM
inhibition [1]: inactive

COc1ccc(-c2nn(-c3ccc(Cl)cc3)c3c2C(c2cccc(OC)c2)CS(=O)(=O)O3)cc1 (centres undefined)
inhibition [1]: inactive
inhibition [2]: 42%

O=S1(=O)CC(c2cccc(C(F)(F)F)c2)c2c(C3CC3)nn(-c3ccccc3Cl)c2O1 (centres undefined)
inhibition [1]: inactive
inhibition [2]: inactive

CC(C)C(=O)C1=C(C(C)C)OS(=O)(=O)CC1c1ccc([N+](=O)[O-])cc1 (centres undefined)
inhibition [1]: inactive
inhibition [2]: inactive

Cc1nn(-c2ccccc2)c2c1C(c1cccc(F)c1)CS(=O)(=O)O2 (centres undefined)
IC50 (Cholinesterase): 9.82 µM
inhibition [1]: inactive

COc1ccc(C2CS(=O)(=O)Oc3c2c(C)nn3-c2ccccc2)cc1 (centres undefined)
IC50 (Cholinesterase): 9.35 µM
inhibition [1]: inactive

Cc1nn(-c2ccccc2)c2c1C(c1ccc(F)cc1)CS(=O)(=O)O2 (centres undefined)
inhibition [1]: inactive
inhibition [2]: 37%

O=S1(=O)CC(c2cccc(C(F)(F)F)c2)c2c(C3CC3)nn(-c3cccc(F)c3)c2O1 (centres undefined)
IC50 (Cholinesterase): 4.62 µM
inhibition [1]: inactive
logD at 24 h [3]: 2.73

Cc1ccc(-n2nc(C)c3c2OS(=O)(=O)CC3c2ccccc2)cc1C (centres undefined)
inhibition [1]: inactive
inhibition [2]: inactive

Cc1nn(-c2ccccc2)c2c1CCS(=O)(=O)O2
inhibition [1]: inactive
inhibition [2]: inactive

CC1(C)CC(=O)C2=C(C1)OS(=O)(=O)CC2c1ccc([N+](=O)[O-])cc1 (centres undefined)
inhibition [1]: inactive
inhibition [2]: inactive

Cc1nn(-c2ccccc2)c2c1C(c1ccc(-c3ccccc3)cc1)CS(=O)(=O)O2 (centres undefined)
inhibition [1]: 12%
inhibition [2]: inactive

Cc1nn(-c2ccc(F)cc2)c2c1C(c1ccccc1)CS(=O)(=O)O2 (centres undefined)
inhibition [1]: inactive
inhibition [2]: inactive

Cc1cc(C2CS(=O)(=O)Oc3c2c(C2CC2)nn3-c2cccc(F)c2)ccc1Br (centres undefined)
IC50 (Cholinesterase): 11.5 µM
inhibition [1]: inactive

Cc1nn(-c2ccccc2)c2c1C(c1ccc(C#N)cc1)CS(=O)(=O)O2 (centres undefined)
inhibition [1]: inactive
inhibition [2]: 15%

Cc1cc(C2CS(=O)(=O)Oc3c2c(C)nn3-c2ccc(Cl)cc2)ccc1Br (centres undefined)
inhibition [1]: inactive
inhibition [2]: 34%

Cc1cc(C2CS(=O)(=O)Oc3c2c(C2CC2)nn3-c2ccccc2Cl)ccc1Br (centres undefined)
IC50 (Cholinesterase): 3.77 µM
inhibition [1]: inactive
logD at 24 h [3]: 2.53

Cc1nn(-c2ccccc2)c2c1C(c1cccc(C3CS(=O)(=O)Oc4c3c(C)nn4-c3ccccc3)c1)CS(=O)(=O)O2 (centres undefined)
inhibition [1]: inactive
inhibition [2]: inactive

Cc1nn(-c2ccccc2)c2c1C(c1cccc([N+](=O)[O-])c1)CS(=O)(=O)O2 (centres undefined)
inhibition [1]: inactive
inhibition [2]: 23%

Cc1nn(-c2ccccc2)c2c1C(/C=C/c1ccc(C(F)(F)F)cc1)CS(=O)(=O)O2 (centres undefined)
inhibition [1]: 19%
inhibition [2]: inactive

COc1ccc(-c2nn(-c3ccccc3F)c3c2C(c2ccc(F)cc2)CS(=O)(=O)O3)cc1 (centres undefined)
inhibition [1]: inactive
inhibition [2]: inactive

Cc1nn(-c2ccc(Br)cc2)c2c1C(c1ccccc1)CS(=O)(=O)O2 (centres undefined)
inhibition [1]: inactive
inhibition [2]: inactive

Cc1nn(-c2ccccc2)c2c1C(c1cccc3c1sc1ccccc13)CS(=O)(=O)O2 (centres undefined)
inhibition [1]: inactive
inhibition [2]: inactive

Cc1nn(-c2cccc(Cl)c2)c2c1C(c1ccc(F)cc1)CS(=O)(=O)O2 (centres undefined)
inhibition [1]: inactive
inhibition [2]: inactive

Cc1cc(C2CS(=O)(=O)Oc3c2c(C2CC2)nn3-c2cccc(Cl)c2)ccc1Br (centres undefined)
inhibition [1]: inactive
inhibition [2]: 34%

Cc1nn(-c2cccc(F)c2)c2c1C(c1ccc(F)cc1)CS(=O)(=O)O2 (centres undefined)
inhibition [1]: inactive
inhibition [2]: inactive

Cc1nn(-c2ccccc2)c2c1C(c1cc3ccccc3o1)CS(=O)(=O)O2 (centres undefined)
IC50 (Cholinesterase): 2.6 µM
inhibition [1]: inactive

Cc1nn(-c2ccc(Cl)cc2)c2c1C(c1cccc(F)c1)CS(=O)(=O)O2 (centres undefined)
inhibition [1]: inactive
inhibition [2]: inactive

CC(=O)C1=C(C)OS(=O)(=O)CC1c1ccc([N+](=O)[O-])cc1 (centres undefined)
inhibition [1]: inactive
inhibition [2]: inactive

O=C1CCCC2=C1C(c1ccc([N+](=O)[O-])cc1)CS(=O)(=O)O2 (centres undefined)
inhibition [1]: inactive
inhibition [2]: 25%
